Test results from PubChem BioAssay AID1351 (Sanford-Burnham Center for Chemical Genomics, 2008).
Where “and” joins values, the source holds several entries; their conditions need not be identical. Equal entries are not always repeated.

Tested on: PPC-1 thapsigargin-induced death, ATPlite luminescence, 24 h
Experiment: ER stress death rescue in PPC-1 prostate cells – cell-based, human prostate cancer PPC-1, ATP luminescence, SAR follow-up (AID 1351)
Details: at 25 µM, stronger effect = higher value
[1] = measured here: survival at thapsigargin 15 uM
[2] = measured here: survival at thapsigargin 20 uM
[3] = survival at lower thapsigargin concentration

Row | SMILES | survival [%] | survival [1] [%] | survival [2] [%] | survival [3]
1 | CCCOc1ccc(C2Nc3ccccc3NC3=C2C(=O)CC(c2ccc(OC)c(OC)c2)C3)cc1 (centres undefined) | 90 | 75 | 37 | 82% and 81%
2 | CSc1ccc(C2Nc3ccccc3NC3=C2C(=O)CC(c2ccccc2)C3)cc1 (centres undefined) | 89 | 52 | 26 | 95% and 105%
3 | COc1ccc(C2CC(=O)C3=C(C2)Nc2ccccc2NC3c2ccccc2C(F)(F)F)cc1OC (centres undefined) | 105 | 108 | 56 | 97% and 102%
4 | COc1ccc(C2CC(=O)C3=C(C2)Nc2ccccc2NC3c2cc(C)ccc2C)cc1 (centres undefined) | 88 | 83 | 32 | 85% and 91%
5 | CCOc1cc(C2Nc3ccccc3NC3=C2C(=O)CC(c2ccc(OC)cc2)C3)cc(Cl)c1O (centres undefined) | 62 | 11 | 8.5 | 82% and 90%
6 | CC1(C)CC(=O)C2=C(C1)Nc1ccccc1NC2c1ccc(-c2ccccc2)cc1 (centres undefined) | 90 | 86 | 87 | 81% and 101%
7 | COc1ccc(C2CC(=O)C3=C(C2)Nc2ccccc2NC3c2cccc(C(F)(F)F)c2)cc1OC (centres undefined) | 94 | 99 | 69 | 93% and 94%
8 | COc1ccc(C2CC(=O)C3=C(C2)Nc2ccccc2NC3c2cccc(Br)c2)cc1OC (centres undefined) | 85 | 102 | 59 | 94% and 100%
9 | COc1ccc(C2CC(=O)C3=C(C2)Nc2ccccc2NC3c2cccc(Oc3ccccc3)c2)cc1OC (centres undefined) | 89 | 95 | 69 | 91% and 92%
10 | CCOc1cccc(C2Nc3ccccc3NC3=C2C(=O)CC(c2ccc(OC)cc2)C3)c1 (centres undefined) | 39 | 14 | 15 | 81% and 87%
11 | O=C1CC(c2ccccc2)CC2=C1C(c1c(F)cccc1Cl)Nc1ccccc1N2 (centres undefined) | 90 | 35 | 18 | 86% and 92%
